{"source": "patent US20260102501A1", "about": "“ANTI-CANCER NUCLEAR HORMONE RECEPTOR-TARGETING COMPOUNDS” (Nuvation Bio Inc., priority 2022, published 2026)", "key": {"22Rv1 cells": {"tested_on": "22Rv1 cells", "experiment": "Cell viability assay (CellTiterGlo)", "conditions": "Homo sapiens, 22Rv1, 144 h, read-out: 22RV1 (IC50, nM)"}, "IEC6 cells": {"tested_on": "IEC6 cells", "experiment": "Cell viability assay (CellTiterGlo)", "conditions": "Rattus norvegicus, IEC-6, 144 h, read-out: IEC-6 (IC50, nM)"}, "[1]": {"biological_target": "T1, Progesterone PR-B receptors from human breast carcinoma T47D cells (Homo sapiens, UniProt P06401)", "T1 sequence (P06401 1-933)": "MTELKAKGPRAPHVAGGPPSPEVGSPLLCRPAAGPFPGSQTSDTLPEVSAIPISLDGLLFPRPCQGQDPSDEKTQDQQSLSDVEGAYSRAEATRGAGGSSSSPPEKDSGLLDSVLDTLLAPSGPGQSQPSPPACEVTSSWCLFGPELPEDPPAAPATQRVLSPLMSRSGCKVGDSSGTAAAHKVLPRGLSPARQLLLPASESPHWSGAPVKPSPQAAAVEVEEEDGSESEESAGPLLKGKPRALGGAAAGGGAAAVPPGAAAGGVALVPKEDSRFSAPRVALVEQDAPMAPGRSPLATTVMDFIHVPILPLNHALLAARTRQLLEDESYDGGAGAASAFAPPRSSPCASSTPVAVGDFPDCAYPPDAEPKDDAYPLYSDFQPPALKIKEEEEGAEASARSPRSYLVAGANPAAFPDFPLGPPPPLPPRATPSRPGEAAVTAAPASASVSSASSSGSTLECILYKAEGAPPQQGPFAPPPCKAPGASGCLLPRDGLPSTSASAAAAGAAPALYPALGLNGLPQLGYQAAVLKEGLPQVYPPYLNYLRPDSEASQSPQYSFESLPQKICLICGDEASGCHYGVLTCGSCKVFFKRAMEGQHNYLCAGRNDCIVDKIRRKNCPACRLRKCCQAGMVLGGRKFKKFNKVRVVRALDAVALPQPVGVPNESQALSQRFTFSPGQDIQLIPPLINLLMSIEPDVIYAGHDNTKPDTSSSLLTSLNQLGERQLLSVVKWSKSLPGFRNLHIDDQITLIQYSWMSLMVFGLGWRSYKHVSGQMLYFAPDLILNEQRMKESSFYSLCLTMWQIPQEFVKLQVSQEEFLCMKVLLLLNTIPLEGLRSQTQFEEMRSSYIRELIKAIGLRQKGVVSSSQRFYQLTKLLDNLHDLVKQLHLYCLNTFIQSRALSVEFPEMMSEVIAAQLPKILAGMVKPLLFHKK", "experiment": "PR binding assay ([3H] Progesterone displacement)"}, "T47D cells": {"tested_on": "T47D cells", "experiment": "Cell viability assay (CellTiterGlo)", "type": "cell-based", "conditions": "Homo sapiens, 144 h, read-out: T47D (IC50, nM)"}, "[2]": {"biological_target": "T2, Progesterone Receptor (PR)-LBD and coactivator peptide (Homo sapiens, UniProt P06401)", "T2 sequence (P06401 679-913 limits assumed)": "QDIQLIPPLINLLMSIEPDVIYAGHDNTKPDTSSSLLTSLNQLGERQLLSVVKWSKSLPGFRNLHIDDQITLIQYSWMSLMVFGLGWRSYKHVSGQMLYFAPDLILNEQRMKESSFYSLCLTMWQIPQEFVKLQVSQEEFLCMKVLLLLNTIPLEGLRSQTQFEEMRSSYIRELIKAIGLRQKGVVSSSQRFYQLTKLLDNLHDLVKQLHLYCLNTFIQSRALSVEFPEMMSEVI", "experiment": "PR coactivator antagonist assay", "conditions": "2.5 nM PR-LBD, 10 nM progesterone-induced fluorescence response"}, "[3]": {"biological_target": "T3, AR (cytosol from LnCaP cells) (Homo sapiens, UniProt P10275, T878A)", "T3 sequence (P10275 1-920 T878A)": "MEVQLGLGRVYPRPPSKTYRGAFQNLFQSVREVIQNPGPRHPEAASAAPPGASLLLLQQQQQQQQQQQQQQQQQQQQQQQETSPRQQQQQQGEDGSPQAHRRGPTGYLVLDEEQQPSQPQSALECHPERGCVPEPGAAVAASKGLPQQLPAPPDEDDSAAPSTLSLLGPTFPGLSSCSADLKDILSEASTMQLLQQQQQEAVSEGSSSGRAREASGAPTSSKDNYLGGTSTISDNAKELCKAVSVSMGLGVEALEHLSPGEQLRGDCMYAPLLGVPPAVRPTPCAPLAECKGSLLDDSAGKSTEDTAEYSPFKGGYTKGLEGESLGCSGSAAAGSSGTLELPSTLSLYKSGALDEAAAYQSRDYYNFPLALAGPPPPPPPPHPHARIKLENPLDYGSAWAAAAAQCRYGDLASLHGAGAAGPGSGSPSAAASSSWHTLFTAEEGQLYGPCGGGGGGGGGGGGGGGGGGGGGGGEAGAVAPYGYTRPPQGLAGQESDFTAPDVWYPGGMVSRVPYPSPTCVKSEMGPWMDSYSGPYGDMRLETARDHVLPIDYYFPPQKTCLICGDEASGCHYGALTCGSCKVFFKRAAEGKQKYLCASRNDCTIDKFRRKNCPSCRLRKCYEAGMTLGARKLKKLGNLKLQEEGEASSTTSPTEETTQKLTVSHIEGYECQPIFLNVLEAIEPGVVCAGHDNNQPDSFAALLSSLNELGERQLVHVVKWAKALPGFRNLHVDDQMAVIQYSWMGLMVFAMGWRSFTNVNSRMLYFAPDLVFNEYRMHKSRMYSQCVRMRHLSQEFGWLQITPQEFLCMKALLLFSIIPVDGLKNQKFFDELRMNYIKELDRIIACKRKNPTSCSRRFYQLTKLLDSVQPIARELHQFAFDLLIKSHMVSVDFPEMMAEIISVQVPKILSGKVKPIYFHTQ", "experiment": "AR binding assay (3H-R1881 displacement)", "experimental": "The plate was then centrifuged at 3000 rpm for 30 minutes at 4° C."}}, "note": "Numbered stars: 1 amine (or outer) side, 2 acyl side, 3 side chain; on linkers, the order of the positions; unused ones are H or OH. Square brackets hold non-standard residues; d marks the D form. Peptide text beside a SMILES is read from it. * marks the point of attachment. X1 = CC(=O)O[C@]1(C(C)=O)CC[C@H]2[C@@H]3CCC4=CC(=O)CCC4=C3[C@@H](c3ccc(*)cc3)C[C@@]21C; Exatecan = CC[C@@]1(O)C(=O)OCc2c1cc1n(c2=O)Cc2c-1nc1cc(F)c(C)c3c1c2[C@@H](N*)CC3; NHCH2OCH2CO = O=C(COCN[*:1])[*:2]; Sar = CNCC(=O)O", "data": [{"compound": "CC[C@@]1(O)C(=O)OCc2c1cc1n(c2=O)Cc2c-1nc1cc(F)c(C)c3c1c2[C@@H](NC(=O)COCNC(=O)CNC(=O)[C@H](Cc1ccccc1)NC(=O)CNC(=O)CN(C)c1ccc([C@H]2C[C@@]4(C)[C@@H](CC[C@]4(OC(C)=O)C(C)=O)[C@@H]4CCC5=CC(=O)CCC5=C42)cc1)CC3", "note": "[Compound 34, (8S,11R,13S,14S,17R)-17-Acetyl-11-(4-(((S)-10-benzyl-1-(((1S,9S)-9-ethyl-5-fluoro-9-hydroxy-4-methyl-10,13-dioxo-2,3,9,10,13,15-hexahydro-1H,12H-benzo[de]pyrano[3′,4′:6,7]indolizino[1,2-b]quinolin-1-yl)amino)-1,6,9, 12,15-pentaoxo-3-oxa-5,8,11,14-tetraazahexadecan-16-yl)(methyl)amino)phenyl)-13-methyl-3-oxo-2,3,6,7,8,11,12,13,14,15,16,17-dodecahydro-1H-cyclopenta[a]phenanthren-17-yl Acetate] (X1-[Sar]GFG[NHCH2OCH2CO]-Exatecan)", "values": [{"measurement": "IC50", "setting": "22Rv1 cells", "result": "101 to 1000", "unit": "nM"}, {"measurement": "IC50", "setting": "IEC6 cells", "result": "101 to 1000", "unit": "nM"}, {"measurement": "IC50", "setting": "[1]", "result": "< 10", "unit": "nM"}, {"measurement": "IC50", "setting": "T47D cells", "result": "101 to 1000", "unit": "nM"}, {"measurement": "PR antagonism", "setting": "[2]", "result": "a (IC50 =< 10 nM)"}, {"measurement": "IC50", "setting": "[3]", "result": "10 to 100", "unit": "nM"}]}]}
